Data published in PMC10447267, “Assessment of the potential of the MET inhibitor tepotinib to affect the pharmacokinetics of CYP3A4 and P-gp substrates” (Investigational New Drugs, 2023).
Where two headings read alike, the source gives them in different places.

Columns and labels:
CYP3A4/5 [1] = assay: CYP3A4/5 inhibition in pooled human liver microsomes; type: in vitro ADME; conditions: for inhibition at 49.5 µM / IC50: human, microsomes
Experimental: The potential of tepotinib and MSC2571109A to inhibit CYP450 enzymes CYP1A2, 2A6, 2B6, 2C8, 2C9, 2C19, 2D6, 2E1, and 3A4/5 in vitro was evaluated using CYP-catalyzed reactions in pooled mixed-gender human liver microsomes using specific substrates and liquid chromatography/tandem mass spectrometry (LC–MS/MS) readouts. […] […] Assessments of mechanism-based inhibition of the above listed CYP450 enzymes were conducted after pre-incubation of the microsomes with tepotinib or MSC2571109A. A brief summary of the incubation methods, including details of substrates used for the other CYP enzymes (which are not pertinent to this article) are presented in Online Resource 1. The LC–MS/MS-based methods used were consistent with those previously described in the literature.

CYP2C8 = biological target: T1, CYP2C8 (Homo sapiens, UniProt P10632); assay: CYP2C8 inhibition in pooled human liver microsomes; type: in vitro ADME; conditions: Amodiaquine N-dealkylation
T1 sequence (P10632 1-490): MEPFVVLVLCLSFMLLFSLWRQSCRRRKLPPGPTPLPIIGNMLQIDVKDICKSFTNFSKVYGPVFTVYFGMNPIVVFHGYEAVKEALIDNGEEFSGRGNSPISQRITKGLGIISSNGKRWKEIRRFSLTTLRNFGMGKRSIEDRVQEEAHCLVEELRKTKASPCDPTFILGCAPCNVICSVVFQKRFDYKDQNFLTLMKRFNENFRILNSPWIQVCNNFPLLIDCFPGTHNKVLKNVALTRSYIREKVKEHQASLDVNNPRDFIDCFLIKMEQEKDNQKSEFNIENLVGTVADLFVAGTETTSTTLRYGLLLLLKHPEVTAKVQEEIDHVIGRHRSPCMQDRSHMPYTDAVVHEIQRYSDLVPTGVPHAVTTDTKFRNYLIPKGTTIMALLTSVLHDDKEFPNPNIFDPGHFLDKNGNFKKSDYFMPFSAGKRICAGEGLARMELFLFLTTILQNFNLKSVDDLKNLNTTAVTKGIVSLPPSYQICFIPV
Experimental: (§1) The potential of tepotinib and MSC2571109A to inhibit CYP450 enzymes CYP1A2, 2A6, 2B6, 2C8, 2C9, 2C19, 2D6, 2E1, and 3A4/5 in vitro was evaluated using CYP-catalyzed reactions in pooled mixed-gender human liver microsomes using specific substrates and liquid chromatography/tandem mass spectrometry (LC–MS/MS) readouts. […] Testosterone 6β-hydroxylation was assessed in the MSC2571109A study. Assessments of mechanism-based inhibition of the above listed CYP450 enzymes were conducted after pre-incubation of the microsomes with tepotinib or MSC2571109A. A brief summary of the incubation methods, including details of substrates used for the other CYP enzymes (which are not pertinent to this article) are presented in Online Resource 1. The LC–MS/MS-based methods used were consistent with those previously described in the literature.

CYP2C9 = biological target: T2, CYP2C9 (Homo sapiens, UniProt P11712); assay: CYP2C9 inhibition in pooled human liver microsomes; type: in vitro ADME; conditions: for inhibition at 49.5 µM: both sexes, human, pooled human liver microsomes, probe diclofenac
T2 construct: pooled mixed-gender human liver microsomes; from tissue; host or cells: pooled mixed-gender human liver microsomes
T2 sequence (P11712 whole entry): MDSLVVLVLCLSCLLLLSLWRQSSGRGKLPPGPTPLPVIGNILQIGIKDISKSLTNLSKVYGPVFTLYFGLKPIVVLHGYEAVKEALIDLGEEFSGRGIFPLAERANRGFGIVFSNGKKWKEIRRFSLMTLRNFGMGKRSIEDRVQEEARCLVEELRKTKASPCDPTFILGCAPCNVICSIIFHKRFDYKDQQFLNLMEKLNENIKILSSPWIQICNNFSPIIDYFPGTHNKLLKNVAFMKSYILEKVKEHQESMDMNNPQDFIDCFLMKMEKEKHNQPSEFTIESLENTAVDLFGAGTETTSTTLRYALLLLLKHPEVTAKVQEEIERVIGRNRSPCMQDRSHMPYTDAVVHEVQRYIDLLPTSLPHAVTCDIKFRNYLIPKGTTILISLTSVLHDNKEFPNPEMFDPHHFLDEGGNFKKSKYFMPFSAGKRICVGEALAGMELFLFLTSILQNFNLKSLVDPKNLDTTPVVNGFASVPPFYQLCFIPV
Experimental: as §1

CYP2C19 = biological target: T3, CYP2C19 (Homo sapiens, UniProt P33261); assay: CYP2C19 inhibition in pooled human liver microsomes; type: in vitro ADME; conditions: for inhibition at 49.5 µM: both sexes, human, pooled human liver microsomes, probe S-mephenytoin (4-hydroxylation)
T3 construct: pooled mixed-gender human liver microsomes; from tissue; host or cells: pooled mixed-gender human liver microsomes
T3 sequence (P33261 whole entry): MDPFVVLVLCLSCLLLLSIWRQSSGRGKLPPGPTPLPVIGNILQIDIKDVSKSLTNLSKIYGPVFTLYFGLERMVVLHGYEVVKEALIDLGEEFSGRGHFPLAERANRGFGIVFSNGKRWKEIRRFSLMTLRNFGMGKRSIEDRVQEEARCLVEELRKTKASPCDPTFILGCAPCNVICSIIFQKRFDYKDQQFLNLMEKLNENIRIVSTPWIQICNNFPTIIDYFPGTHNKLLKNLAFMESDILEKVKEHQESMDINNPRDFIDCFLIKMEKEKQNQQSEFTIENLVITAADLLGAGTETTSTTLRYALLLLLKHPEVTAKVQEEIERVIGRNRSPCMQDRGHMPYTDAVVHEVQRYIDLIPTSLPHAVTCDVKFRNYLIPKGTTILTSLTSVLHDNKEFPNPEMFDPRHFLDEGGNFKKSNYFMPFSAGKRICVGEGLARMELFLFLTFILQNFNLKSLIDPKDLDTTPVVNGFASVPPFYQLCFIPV
Experimental: as §1

[2] = Safety and tolerability in the two clinical studies; type: in vivo, human; conditions: healthy participants; tepotinib 500 mg once daily, both studies
Experimental: Safety and tolerability were also assessed throughout each study.

CYP3A4/5 [3] = type: in vitro ADME, human
Experimental: (§2) In vitro studies in primary human hepatocyte cultures were conducted to assess the potential of tepotinib to induce human CYP1A1/2, 2B6 and 3A4/5 activity, the latter based on testosterone 6β-hydroxylation reactions (Online Resource 2). […] The studies included positive (rifampin) and vehicle (DMSO) controls. A negative control (flumazenil) was also included in the mRNA studies. The study designs, test systems and selection of prototypical inducers used in these studies were consistent with PhRMA, FDA and EMA guidelines.

CYP2B6 = CYP2B6 activity induction in primary human hepatocyte cultures; type: in vitro ADME; conditions: enzyme activity quantification
Experimental: as §2

P-gp = P-gp (Homo sapiens, UniProt P08183); assay: P-gp inhibition in Caco-2 cell monolayers with [3H]-digoxin; type: in vitro ADME; parameters: An in vitro assay in Caco-2 cell monolayers; endogenous in cells; host or cells: Caco-2
Sequence of P-gp (P08183 whole entry): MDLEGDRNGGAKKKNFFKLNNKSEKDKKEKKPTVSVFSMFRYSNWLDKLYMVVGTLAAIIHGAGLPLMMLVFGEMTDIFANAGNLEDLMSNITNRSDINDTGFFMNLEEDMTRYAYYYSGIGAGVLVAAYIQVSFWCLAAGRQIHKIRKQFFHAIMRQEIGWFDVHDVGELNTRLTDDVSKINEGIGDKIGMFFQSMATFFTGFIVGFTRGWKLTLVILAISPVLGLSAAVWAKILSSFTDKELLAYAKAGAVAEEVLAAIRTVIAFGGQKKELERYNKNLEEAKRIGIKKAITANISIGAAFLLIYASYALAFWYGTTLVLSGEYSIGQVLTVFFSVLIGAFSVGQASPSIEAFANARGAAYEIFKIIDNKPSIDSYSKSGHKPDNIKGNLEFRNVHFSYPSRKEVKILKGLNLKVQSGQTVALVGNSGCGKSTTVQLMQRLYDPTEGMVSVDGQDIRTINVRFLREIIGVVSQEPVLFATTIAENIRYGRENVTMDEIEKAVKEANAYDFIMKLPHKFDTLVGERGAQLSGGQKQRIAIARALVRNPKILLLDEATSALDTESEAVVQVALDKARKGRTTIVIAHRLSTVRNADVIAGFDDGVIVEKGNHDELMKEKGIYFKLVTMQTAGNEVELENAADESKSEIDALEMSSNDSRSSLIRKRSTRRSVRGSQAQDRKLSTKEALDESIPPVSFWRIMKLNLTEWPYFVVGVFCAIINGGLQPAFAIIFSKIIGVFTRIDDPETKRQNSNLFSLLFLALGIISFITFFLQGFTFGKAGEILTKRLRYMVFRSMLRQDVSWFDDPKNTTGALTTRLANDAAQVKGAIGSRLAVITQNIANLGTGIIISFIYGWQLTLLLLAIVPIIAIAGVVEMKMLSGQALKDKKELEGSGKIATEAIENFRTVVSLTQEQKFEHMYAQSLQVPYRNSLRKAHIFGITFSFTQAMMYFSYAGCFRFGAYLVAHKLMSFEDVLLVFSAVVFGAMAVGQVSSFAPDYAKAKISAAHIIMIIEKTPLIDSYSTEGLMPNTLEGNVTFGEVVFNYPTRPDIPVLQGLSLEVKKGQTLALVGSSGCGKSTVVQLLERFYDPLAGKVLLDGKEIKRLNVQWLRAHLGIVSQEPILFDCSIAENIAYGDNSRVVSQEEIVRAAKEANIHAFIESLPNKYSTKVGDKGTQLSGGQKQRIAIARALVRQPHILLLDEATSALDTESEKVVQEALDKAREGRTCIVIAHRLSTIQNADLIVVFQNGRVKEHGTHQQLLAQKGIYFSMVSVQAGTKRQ
Experimental: An in vitro assay in Caco-2 cell monolayers was performed to assess the P-gp inhibition potential of tepotinib (Online Resource 4). [^3H]-digoxin was used as a P-gp probe substrate. Control experiments were conducted to ensure acceptable performance of the cells. The extent of inhibition in these studies, expressed as IC50, was determined by quantification of the transport or uptake of ^3H-digoxin in Caco-2 cells in the absence and presence of tepotinib.
To assess the potential clinical risk and to identify whether an in vivo DDI study was required, drug concentration ([I])/IC50 ratios and/or R-values were calculated considering the mean human steady state exposure of parent drug and its metabolite, observed at the clinical dose of 500 mg tepotinib. Results were assessed according to both FDA and EMA criteria.

[4] = P-gp, clinical dose of 500 mg once daily

CN1CCC(COc2cnc(-c3cccc(Cn4nc(-c5cccc(C#N)c5)ccc4=O)c3)nc2)CC1 [tepotinib]
Potential for time-dependent inhibition (CYP3A4/5 [1]; Midazolam 6β-hydroxylation): Little or No | Potential for time-dependent inhibition (CYP3A4/5 [1]; Nifedipine oxidation): Little or No | Potential for time-dependent inhibition (CYP3A4/5 [1]; Testosterone 1’-hydroxylation): Little or No | inhibition at 49.5 µM (CYP3A4/5 [1]; both sexes, Midazolam 6β-hydroxylation, 30-min preincubation, read-out: Time-dependent inhibition, maximum inhibition at 49.5 µM): 60% | IC50 (CYP3A4/5 [1]; both sexes, Midazolam 6β-hydroxylation, 30-min preincubation, read-out: Time-dependent inhibition IC50): 33 µM | inhibition at 49.5 µM (CYP3A4/5 [1]; both sexes, Midazolam 6β-hydroxylation, zero-minute preincubation, read-out: Direct inhibition, maximum inhibition at 49.5 µM): 66% | inhibition at 49.5 µM (CYP3A4/5 [1]; both sexes, Nifedipine oxidation, 30-min preincubation, read-out: Time-dependent inhibition, maximum inhibition at 49.5 µM): 71% | IC50 (CYP3A4/5 [1]; both sexes, Nifedipine oxidation, 30-min preincubation, read-out: Time-dependent inhibition IC50): 25 µM | inhibition at 49.5 µM (CYP3A4/5 [1]; both sexes, Nifedipine oxidation, zero-minute preincubation, read-out: Direct inhibition, maximum inhibition at 49.5 µM): 64% | inhibition at 49.5 µM (CYP3A4/5 [1]; both sexes, Testosterone 1’-hydroxylation, 30-min preincubation, read-out: Time-dependent inhibition, maximum inhibition at 49.5 µM): 59% | IC50 (CYP3A4/5 [1]; both sexes, Testosterone 1’-hydroxylation, 30-min preincubation, read-out: Time-dependent inhibition IC50): 37 µM | inhibition at 49.5 µM (CYP3A4/5 [1]; both sexes, Testosterone 1’-hydroxylation, zero-minute preincubation, read-out: Direct inhibition, maximum inhibition at 49.5 µM): 62% | IC50 (CYP3A4/5 [1]; both sexes, human liver microsomes, Midazolam 6β-hydroxylation, zero-minute preincubation, read-out: Direct inhibition IC50): 25 µM | IC50 (CYP3A4/5 [1]; both sexes, human liver microsomes, Nifedipine oxidation, zero-minute preincubation, read-out: Direct inhibition IC50): 26 µM | IC50 (CYP3A4/5 [1]; both sexes, human liver microsomes, Testosterone 1’-hydroxylation, zero-minute preincubation, read-out: Direct inhibition IC50): 31 µM | IC50 (CYP3A4/5 [1]; both sexes, in vitro, abstract summary, read-out: IC50, direct or time-dependent CYP3A4/5 inhibition): > 15 µM | Ki (CYP3A4/5 [1]; both sexes, human liver microsomes, read-out: Ki, CYP3A4/5-catalyzed probe substrate reactions): ≥ 11 µM | Direct inhibition of CYP3A4/5 (in words) (CYP3A4/5 [1]; in vitro): weak direct inhibitors | Potential for time-dependent inhibition (CYP2C8): Little or No | IC50 (CYP2C8; 30-min preincubation, read-out: Time-dependent inhibition IC50): 13 µM | Type of inhibition (CYP2C8; direct inhibition): Mixed | inhibition at 49.5 µM (CYP2C8; both sexes, human, pooled human liver microsomes, probe amodiaquine, zero-minute preincubation, 49.5 µM, read-out: Direct inhibition, maximum inhibition at 49.5 µM): 86% | Ki (CYP2C8; human liver microsomes, read-out: Direct inhibition Ki): 11 µM | IC50 (CYP2C8; human liver microsomes, zero-minute preincubation, read-out: Direct inhibition IC50): 16 µM | Potential for time-dependent inhibition (CYP2C9; Diclofenac 4-hydroxylation): Little or No | IC50 (CYP2C9; Diclofenac 4-hydroxylation, 30-min preincubation, read-out: Time-dependent inhibition IC50): 23 µM | inhibition at 49.5 µM (CYP2C9; Diclofenac 4-hydroxylation, 30-min preincubation, read-out: Time-dependent inhibition, maximum inhibition at 49.5 µM): 52% | inhibition at 49.5 µM (CYP2C9; Diclofenac 4-hydroxylation, zero-minute preincubation, read-out: Direct inhibition, maximum inhibition at 49.5 µM): 58% | IC50 (CYP2C9; human liver microsomes, Diclofenac 4-hydroxylation, zero-minute preincubation, read-out: Direct inhibition IC50): 27 µM | Ki (CYP2C9; human liver microsomes, direct inhibition, read-out: Ki, CYP2C9-catalyzed probe substrate reaction): ≥ 11 µM | Potential for time-dependent inhibition (CYP2C19; S-Mephenytoin 4-hydroxylation): Little or No | IC50 (CYP2C19; S-Mephenytoin 4-hydroxylation, 30-min preincubation, read-out: Time-dependent inhibition IC50): 29 µM | inhibition at 49.5 µM (CYP2C19; S-Mephenytoin 4-hydroxylation, 30-min preincubation, read-out: Time-dependent inhibition, maximum inhibition at 49.5 µM): 65% | inhibition at 49.5 µM (CYP2C19; S-Mephenytoin 4-hydroxylation, zero-minute preincubation, read-out: Direct inhibition, maximum inhibition at 49.5 µM): 64% | IC50 (CYP2C19; human liver microsomes, S-Mephenytoin 4-hydroxylation, zero-minute preincubation, read-out: Direct inhibition IC50): 30 µM | Ki (CYP2C19; human liver microsomes, read-out: Ki, CYP2C19-catalyzed probe substrate reaction): ≥ 11 µM | Safety and tolerability (in words) [2]: safe and well tolerated | Induction of CYP3A4/5 activity (in words) (CYP3A4/5 [3]; in vitro): did not induce | Induction of CYP3A4/5 activity (CYP3A4/5 [3]; primary human hepatocyte cultures, enzyme activity quantification (testosterone 6β-hydroxylation)): less than 40 % of positive control | Induction of CYP2B6 activity (CYP2B6): less than 40 % of positive control | IC50 (P-gp; Caco-2 cell monolayers, [3H]-digoxin probe substrate, read-out: Apparent IC50, P-gp inhibition): 0.41 µM | [I]/IC50 ratio (intestinal) (P-gp; [4]): 8917 | [I]/IC50 ratio (systemic) (P-gp; [4]): 0.39
